Laboratory results published in paper PMC11468675, “Near‐Infrared Bodipy‐Based Molecular Rotors for β‐Amyloid Imaging In Vivo” (Advanced Healthcare Materials, 2023).
“And” between values parts separate entries of the source, which are not always exact repeats. Identical values can stand only once.

What was measured:
Aβ aggregates = settings: reported probe; ref (8); cited from earlier work
Cytotoxicity MTT assay = type: cell-based; settings: rat, PC12 cells, read-out: Cell viability
Method: The cells used for the cyt otox icit y t est were PC12, purchased from the Chinese National Infrastructure of Cell Line Resource. The experiment was divid ed into two parts, cell culture, and c yt otox icit y test. The PC12 cells were first cultured in cell culture fluid (high-glucose DMEM/heat-inactivated FBS/ heat-inactivated HS /penicillin and streptomycin = 100: 5: 5: 1, v/v) under 5% CO2 at 37 °C. After a period of incubation, PC12 were transferred into a sterile 96-well plate (1 × 10^4 cells per well) and cultured
for 24 h under 5% CO2 at 37 °C. After that, the cell culture fluid was removed, and gradient concentrations of probes (TP yrBDP, TPipBDP, THAIBDP), Aβ in the cell culture fluid (0, 2, 5, 10, 12, and 15 μM), or probes+ Aβ in th e cell culture fluid (5 μM probe + 10 μM Aβ) were added into the 96-well plate and incubat ed for another 24 h.
After that, the gradient concentration of probes or Aβ was removed and MTT (5× MTT was diluted into 1× MTT using dilution buffer, 50 μL per well) was added; t he mix ture was incubated at 37 °C for 4 h. The supernatant was removed, and form azan (150 μL per well) was added; the mix ture was placed on a shaker to be mix ed well. The cell viabilit y was determined by a microplate reader at 490 nm.

[1] = biological target: Aβ plaques in brain slices (Homo sapiens, UniProt P05067); test: In vitro brain slice fluorescence staining, co-staining with ThT; settings: Tg mice slices, 13-month-old, female
Sequence of Aβ plaques in brain slices (P05067 672-711 limits assumed): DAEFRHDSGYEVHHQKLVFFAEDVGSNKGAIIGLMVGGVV
Method: To confirm whether the probes could bind Aβ deposits in brain slices, the fluorescence staining experiment were performed using slices of Tg mice (13‐month‐old, female). The staining results were imaged using CLSM. To ensure the accuracy of the staining results, commercial fluorescent dye ThT was used to co‐stain the same sections. The fluorescence signals of the slices were acquired at the same position using different channels of the CLSM. As shown in Figure 4 and Figure S27–S29, Supporting Information, Aβ plaques were highlighted by the probes with a high signal‐to‐background ratio. In contrast, there was no fluorescence signal for wild‐type slices (Figures S30–S32, Supporting Information). Since Aβ plaques are abundantly produced in the hippocampal and cortical regions of the brain, we imaged the corresponding regions of the slices, respectively. The staining results with ThT (Figure 4a,b,i,j,q,r) are shown in green, and the staining results of the probes TPyrBDP (Figure 4c,d), TPipBDP (Figure 4k,l), and THAIBDP (Figure 4s,t) are shown in red. All three probes could stain Aβ plaques both in the hippocampal and cortical regions successfully, and the corresponding merged image further confirmed the staining results. To quantify the colocalization effect, the Pearson correlation coefficients (R‐value) were calculated using ImageJ software. The closer the R‐value is to 1, the better the colocalization of the probe and ThT.
(§1) In Vitro Brain Slice Fluorescence Staining
The paraffin-embedded blank sections (5 μm) were immersed in x ylene for 5 min for deparaffinization and then washed with ethanol for 2 min and water for 5 min. […]
Human blood (1 m L, provided b y China-J apan Friendly Hospital, Beijing, China) was first diluted with 2 m L of PBS solution; the sample was centrifugated for 10 min (8000 rpm) and washed with PBS 5 times to separate red blood cells from serum. […] The supernatant (100 μL) was transferred to 96-well plates, and its ultraviolet absorption (Ex = 490 nm) was evaluated. […]

Aβ1–42 aggregates [2] = biological target: T1, Aβ1–42 aggregates (Homo sapiens, UniProt P05067); test: In vitro Aβ42 aggregate staining in solution (CLSM); type: binding; settings: probe 5 µM, ThT 10 µM
T1 construct: purchased Shanghai Macklin Biochemical Technology Co., Ltd
T1 sequence (P05067 672-713 limits assumed): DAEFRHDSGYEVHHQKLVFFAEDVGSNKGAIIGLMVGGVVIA
Method: In Vitro Aβ42 staining in solution
Aβ42 aggregates were prepared according to the literature reported method 2. Aβ42
aggregate solution (20 μL) was added dropwise to a slide (CITOTEST), and then spread
until dry. ThT (10 μM, 20 μL) was added dropwise and spread until it was dry. Prob es
were added dropwise and spread until dr y. Anti-fluorescence quenchin g reagent (10-20
μL) was added dropwise and covered with a cover slide. The fluorescence signal was
captured b y C LSM. λex (ThT) = 488 nm, λem (ThT) = 508-550 nm; λex (probe) = 633 nm,

Aβ1–42 aggregates [3] = biological target: T1, Aβ1–42 aggregates; test: Fluorescence enhancement assay with Aβ aggregates; type: binding; settings: for Em, with Aβ / Em shift, with Aβ: 10% ethanol/PBS; for Em shift, with Aβ: + red shift, − blue shift; for Fluorescence enhancement (Fold = FL intensity probe+Aβ / probe): probe 1 μM in 10% EtOH/PBS, Aβ aggregates 33 µg mL−1
From the text: Thioflavin‐T (ThT) is the gold standard probe, commonly used as an in vitro fluorescence stain to determine the existence of Aβ aggregates. The ThT probe has a typical D–A structure, and its HOMO and LUMO electron clouds are redistributed from the donor (HOMO) to the acceptor (LUMO), which is typical for ICT probes.^[ [46] ^] In addition, the single bond between the benzene ring in the ThT probe and the benzothiazole salt, and the N,N‐dimethylamino group attached to the benzene ring can rotate freely, resulting in ThT becoming a molecular rotor. After ThT binds to Aβ, the rotation of the molecular rotor is restricted, and most of the electrons in the excited state return to the ground state by radiative transition, resulting in a substantial increase in fluorescence. […] The fluorescence response of TPyrBDP, TPipBDP, and THAIBDP with Aβ1–42 aggregates and BSA was evaluated in PBS (10% ethanol) solution. The formation of Aβ1–42 aggregates was characterized by TEM. The morphology of Aβ1–42 aggregates was filamentous (Figure S25b, Supporting Information), while the morphology of Aβ1–42 oligomers was a point‐like structure with a minimum diameter 44 nm (Figure S25a, Supporting Information). The images confirmed that Aβ1–42 aggregates were prepared successfully. As shown in Figure 2c‐f and Table S1, Supporting Information, a 42.5‐fold enhancement of fluorescence was observed when TPyrBDP interacted with the Aβ1–42 aggregates. […] The results confirmed the calculation results in Figure 1. […] In Figure 1b, the three probes are inserted into the hydrophobic pocket of Aβ1–42 aggregates when they interact with Aβ1–42 aggregates, resulting in changes of λ em. The fluorescence response of BSA with probes may cause non‐specific fluorescence enhancement, thus generating false signals. Therefore, we evaluated the interaction between the three probes and BSA. […] The selectivity of TPyrBDP, TPipBDP, and THAIBDP to different ions and amino acids was also evaluated. […] The ions and amino acids had no influence on the fluorescence enhancement of the probes. To quantify the binding affinity (K d) of the probes to Aβ1–42 aggregates, fluorescence‐based saturation binding assays were conducted using Aβ1–42 aggregates. The lower the K d values, the better the affinities.
To a solution of HFIP (600 μL) was added hum an Aβ42 (1 mg). After that, the solution was ultrasonicall y t reated for 2 min to destroy the oligomer probabl y formed, followed b y placing the mixture into an ice bath for 2 h. The solution was dispensed 20 μL per cent rifuge tube, dried by nitro gen, and stored at −80 °C.
To a centrifuge tube (containing 33 μg of Aβ42) was added 540 μL of PBS and 1% hydrox yl amine solution (60 μL); the solution was s haken on a shaker (300 rpm) at 37 °C for 72-96 h to form the Aβ42 aggregates. The Aβ42 aggregates were characterized by transmission electron microscop y (TEM).
Fluorescence Enhancement Assay
To a solution of probes were added pretreated Aβ42 aggregates (33 μg) or bovine serum albumin (BSA). The mix ture (the final concentration of probes was 1μM in 10% EtOH/PBS) was immediatel y transferred to a fluorescence spectrophot ometer (U-3900H, HITACHI, J apan) to record their spectrum (Ex slit = 10 nm, Em slit = 20 nm).
The probes alone (1μM in 10% EtOH/PBS), PBS, and BSA were also tested under the same conditions. The fluorescence enhancem ent was calculated usin g the followin g formula: fold = the fluorescence intensit y of the probe with Aβ42 or BSA/the fluorescence intensit y of probe alone. […]
(1 picture or pasted object on this page, not shown here)

Hemolysis rate assay = type: cell-based; settings: human, human red blood cells separated from whole blood, probe up to 100 µM, room temperature
Method: A cytotoxicity assay is one of the methods to evaluate the biocompatibility of probe molecules. Probes are generally considered to have low cytotoxicity when the cell viability is above 80%. Therefore, the cytotoxicity of TPyrBDP, TPipBDP, and THAIBDP was evaluated using PC12 cells using a standard MTT assay method. […] The hemolysis rate of probes is one of the common methods to evaluate the effect of probes on the blood of live animals. Therefore, the hemolysis rate of probes TPyrBDP, TPipBDP, and THAIBDP with blood samples was also evaluated. […] Therefore, the probes were suitable for subsequent cell experiments and animal experiments.
as §1
The paraffin-embedded blank sections (5 μm) were immersed in x ylene for 5 min for deparaffinization and then washed with ethanol for 2 min and water for 5 min. The brain slices were incubated with 40 μL of 10 mg/ m L ThT for 5 min and washed with 50% ethanol solution for 3 min. Next, the brain sl ices were incubated with 40 μL of 1 μM probes for 20 min. After absorbin g th e residual liquid with dust-free paper, th e antifluorescence attenuating agent was added dropwise, and neutral gum was used for mounting. The slices were then placed under a laser confocal microscope (Lecia SP5) […]
Hemolysis Rate (HR) Assay
Human blood (1 m L, provided b y China-J apan Friendly Hospital, Beijing, China) was first diluted with 2 m L of PBS solution; the sample was centrifugated for 10 min (8000 rpm) and washed with PBS 5 times to separate red blood cells from serum. Finall y, the red blood cells were dispersed in 10 m L of P BS solution, from which 0.2 m L was taken, and 0.8 m L of different reagents (P BS, DI water, and 10, 20, 30, 50, and 100 μM of probes) was added. After mix ing evenl y, the samples were allowed to stand still for 3 h at room temperature and centrifuged (12,000 rpm, 5 min) to determine hemolysis circumstances. The supernatant (100 μL) was transferred to 96-well plates, and its ultraviolet absorption (Ex = 490 nm) was evaluated. […]

Aβ1–42 aggregates [4] = biological target: T1, Aβ1–42 aggregates; test: Fluorescence-based saturation binding assay; settings: 10% EtOH/PBS, triplicate
[5] = tested on: Aβ1–42 aggregates in PC12 cells; test: Cell imaging of Aβ1–42 aggregates, co-staining with ThT; type: cell-based
From the text: PC12 cells were used to study the affinity between TPipBDP and Aβ1–42 aggregates. Aβ1–42 aggregates have great neurotoxicity to interfere with the normal function of the brain. […] To study the imaging of TPipBDP with Aβ1–42 aggregates, the imaging effect of TPipBDP with Aβ1–42 aggregates was studied in PC12 cells. […] After adding Aβ1–42 aggregates to PC12 cells, some smaller‐than‐cell green fluorescence (ThT) and red fluorescence (TPipBDP) spots were observed. These smaller‐than‐cell bright fluorescence spots were Aβ1–42 aggregates. The Aβ1–42 aggregates can be clearly observed in the bright field image. […]
After that, the gradient concentration of probes or Aβ was removed and MTT (5× MTT was diluted into 1× MTT using dilution buffer, 50 μL per well) was added; t he mix ture was incubated at 37 °C for 4 h. […] The cell viabilit y was determined by a microplate reader at 490 nm.
To a centrifuge tub e (containing 1 mg of Aβ42) was added 180 μL of DMSO and 720 μL of PBS (pH = 7.2-7.4, Hyclone) and 1% hydrox ylamine solution (100 μL); the solution was shaken on a shaker (300 rpm) at 37 °C for 7 da ys to form the Aβ42 aggregates. Initial peptide concentrations were determined spectrophotometricall y at 280 nm, using an extinction coefficient of 1280 M-1cm-1. […]

Structure (SMILES) | Kd (Aβ aggregates) [nM] | viability at 24 h (Cytotoxicity MTT assay) [%] | Pearson correlation coefficient (R-value) with ThT, hippocampus region [1] | Staining of Aβ1–42 aggregates in solution (Aβ1–42 aggregates [2]) | Em, with Aβ (Aβ1–42 aggregates [3]) [nm] | Em shift, with Aβ (Aβ1–42 aggregates [3]) | λem blueshift after interacting with Aβ1–42 aggregates (Aβ1–42 aggregates [3]; PBS (10% ethanol)) | Fluorescence enhancement (Fold = FL intensity probe+Aβ / probe) (Aβ1–42 aggregates [3]) | hemolysis at 3 h (Hemolysis rate assay) [%] | Kd (Aβ1–42 aggregates [4]) [nM] | R-value (colocalization with ThT), probe + Aβ group ([5]; PC12 cells with Aβ1–42 aggregates (10 µM)) | R-value (colocalization with ThT), control group ([5]; PC12 cells without Aβ) | Pearson correlation coefficient (R-value) with ThT, cortex region [1] | λem redshift after interacting with Aβ1–42 aggregates (Aβ1–42 aggregates [3]; PBS (10% ethanol))
Cc1cc(/C=C/c2ccc(N(C)C)cc2)n2c1C=C1C=CC=[N+]1[B-]2(F)F [BAP-1] | 44.1 | – | – | – | – | – | – | – | – | – | – | – | – | –
CC1=CC(C)=[N+]2C1=Cc1c(C)cc(/C=C/c3ccc(N4CCCCCC4)s3)n1[B-]2(F)F [THAIBDP] | – | > 80 | 0.72 | stained Aβ1–42 aggregates successfully | 701 | -22 nm | ≈ 22 nm | 27.23 fold and 27.2 fold | < 5 | 28.2 ± 3.07 | – | – | – | –
CC1=CC(C)=[N+]2C1=Cc1c(C)cc(/C=C/c3ccc(N4CCCCC4)s3)n1[B-]2(F)F [TPipBDP] | – | > 80 | – | – | 692 | -27 nm | ≈ 27 nm | 75.54 fold and 75.5 fold | < 5 | 28.3 ± 5.94 | 0.84 | 0.65 | – | –
CC1=CC(C)=[N+]2C1=Cc1c(C)cc(/C=C/c3ccc(N4CCCC4)s3)n1[B-]2(F)F [TPyrBDP] | – | > 80 | 0.87 | stained Aβ1–42 aggregates successfully | 693 | +13 nm | – | 42.48 fold and 42.5 fold | < 5 | 54.2 ± 5.82 | – | – | 0.85 | ≈ 13 nm
